Test results published in US20230082929A1, “METHODS OF GENERATING AND USING SENESCENT-INDUCED CELLS FOR TREATMENT OF CANCER AND COMPOSITIONS RELATING THERETO” (The Wistar Institute of Anatomy and Biology, priority 2020, published 2023).

Key:
SASP factors = experiment: Secreted cytokine antibody array, IMR90 cells; format: cell-based, human; settings: HMGB2 knockdown senescent IMR90 cells
Procedure: For cytokine-array analysis, cells were washed once and cultured in serum-free medium for 48 hours (Nacarelli et al., 2019). Conditioned medium was filtered (0.2 μm) and then subjected to cytokine-array assay using Human Cytokine Array C1 kit (RayBiotech. Cat. No: AAH-CYT-1-2) following the manufacturer's guidelines. After collection of conditional media, the cell number of each sample was counted. The intensities of array dots were visualized on film after incubation with SuperSignal West Pico PLUS Chemiluminescent Substrate (Thermo Fisher Scientific. Cat. No: 34580). The integrated density was measured using Image J and normalized to the cell number from which the conditioned medium was generated.

cGAS = cGAS localization into CCF by immunofluorescence; format: cell-based, human; settings: HMGB2 knockout cells
Procedure: Cells were fixed with 4% paraformaldehyde (PFA) for 15 mins at room temperature followed by permeabilization with 0.2% Triton X-100 in PBS for 5 min. For DNase I digestion, after fixation and permeabilization, cells were treated with 500 units/mL RNase-Free DNase I (Qiagen, Cat. No: 79254) for one hour at 37° C. After blocking with 1% BSA in PBS, cells were incubated with primary antibody overnight at 4° C. and Alexa-Fluor conjugated secondary antibody (Life Technologies). Fluorescent images were captured using Leica TCS SP5 II scanning confocal microscope.

TOP1cc [1] = biological target: T1, TOP1cc (Homo sapiens, UniProt P11387); experiment: TOP1cc induction in CPT-treated IMR90 cells (chromatin fragment extraction, slot blot); format: cell-based; set-up: endogenous in cells; host or cells: IMR90 human fibroblasts (senescent or proliferating, with or without shHMGB2); settings: IMR90 cells treated with two doses of CPT (5 μM or 50 μM, 30 minutes)
T1 sequence (P11387 1-765): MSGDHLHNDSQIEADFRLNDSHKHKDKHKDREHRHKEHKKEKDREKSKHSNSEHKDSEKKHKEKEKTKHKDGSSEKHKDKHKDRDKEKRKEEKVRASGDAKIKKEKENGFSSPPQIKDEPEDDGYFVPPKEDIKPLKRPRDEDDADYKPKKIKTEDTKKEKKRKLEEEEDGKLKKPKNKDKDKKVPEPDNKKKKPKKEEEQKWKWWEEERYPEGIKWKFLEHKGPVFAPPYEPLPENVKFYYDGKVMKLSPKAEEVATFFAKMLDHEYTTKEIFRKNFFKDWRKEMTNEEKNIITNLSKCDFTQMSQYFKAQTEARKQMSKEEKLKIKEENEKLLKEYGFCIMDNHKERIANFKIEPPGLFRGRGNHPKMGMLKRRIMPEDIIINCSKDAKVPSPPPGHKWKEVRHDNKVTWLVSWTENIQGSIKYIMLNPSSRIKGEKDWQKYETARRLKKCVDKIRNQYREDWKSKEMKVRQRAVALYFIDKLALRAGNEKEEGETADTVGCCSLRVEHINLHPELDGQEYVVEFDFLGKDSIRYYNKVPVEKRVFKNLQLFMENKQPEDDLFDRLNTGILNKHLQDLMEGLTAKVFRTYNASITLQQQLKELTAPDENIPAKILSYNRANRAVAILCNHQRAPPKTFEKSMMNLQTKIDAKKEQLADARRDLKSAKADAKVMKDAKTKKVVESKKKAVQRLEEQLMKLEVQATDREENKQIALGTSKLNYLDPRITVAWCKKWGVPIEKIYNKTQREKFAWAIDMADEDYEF
Procedure: For chromatin fragments extraction, proliferating IMR90 cells were treated with 5 μM or 50 μM Camptothecin for 30 minutes to induce low or high levels of TOP1cc, respectively. Cells then were incubated with hypotonic buffer (10 mM Tris, pH 7.4, 30 mM NaCl, 3 mM MgCl2, 0.1% NP40), supplemented with protease inhibitor cocktail, on ice for 10 mins (Dou et al., 2017). The cells were then centrifuged at 300×g for 3 mins at 4° C. The supernatant was carefully removed, and the resulting pellets were incubated with benzonase buffer (50 mM Tris pH 7.5, 300 mM NaCl, 0.5% NP40, 2.5 mM MgCl2) with protease inhibitor cocktail, supplemented with 10 U of benzonase (Sigma Cat. No: E1014), on ice, for 30 min. The product was centrifuged again at 300×g for 3 mins at 4° C., and benzonase was inactivated by addition of 15 mM EDTA. The resulting supernatant contains chromatin fragments and soluble nuclear proteins. For the negative controls, buffer without benzonase was used and the resulting supernatant only contains soluble nuclear proteins without chromatin fragments. The product was then diluted 5 times with PBS. Slot blot were performed to confirm the TOP1cc level.
Human Topoisomerase 1 ICE Assay Kit (TopoGEN. Cat. No:TG1020-1) was used to isolate protein-DNA samples which contain TOP1-DNA covalent complex (TOP Ice) for slot blot analysis. […] Quantification was performed using NIH Image J software.

TOP1cc [2] = biological target: T1, TOP1cc; experiment: Slot blot analysis of TOP1cc levels in purified CCF of senescent cells; format: cell-based; set-up: endogenous in cells; host or cells: IMR90 human fibroblasts (senescent or proliferating, with or without shHMGB2); OVCAR3 (with or without HMGB2 knockout); settings: CCF isolated from HMGB2 knockdown or knockout senescent cells (IMR90, OVCAR3)
Procedure: A CCF purification protocol was developed by modifying previous protocols (Shimizu et al., 1996; Ly et al., 2017). Briefly, 500 million senescent cells were collected, resuspended, and incubated in DMEM containing 10 μg/mL cytochalasin B for 30 minutes at 37° C. After wash once with ice-cold PBS, the cell pellet was gently dounce homogenized in ice-cold pre-chilled lysis buffer (10 mM Tris-HCl, 2 mM magnesium acetate, 3 mM CaCl2), 0.32 M sucrose, 0.1 mM EDTA, 1 mM DTT, 0.1% NP-40, 0.15 mM spermine, 0.75 mM spermidine, 10 μg/ml cytochalasin B, pH 8.5, 4° C.) with ten slow strokes of a loose-fitting pestle. Release of nuclei was confirmed by DAPI-staining and microscopy. The homogenate was fixed with 1% formaldehyde for 10 minutes, and mixed well with an equal volume of 1.6M sucrose buffer (10 mM Tris-HCl, 5 mM magnesium acetate, 0.1 mM EDTA, 1 mM DTT, 0.3% BSA, 0.15 mM spermine, 0.75 mM spermidine, pH 8.0, 4° C.). A 10 mL portion of homogenate was layered on the top of sucrose buffer gradient (20 mL and 15 mL containing 1.8M and 1.6M of sucrose, respectively) in a 50 mL tissue culture tube. The tubes were centrifuged at 1200×g for 20 minutes at 4° C. After centrifugation, the upper 3 mL of the gradient was discarded, and the next 15 mL containing CCFs was collected. […] DNA concentration was measured using Nanodrop and 5 μg DNA was used for slot blot analysis.

SMILES: CC[C@@]1(O)C(=O)OCc2c1cc1n(c2=O)Cc2cc3ccccc3nc2-1 [CPT, Camptothecin]
- secretion of SASP factors (antibody array) (SASP factors): restoration of the secretion of SASP factors
- localization of cGAS and TOP1cc into CCF (cGAS): rescue of the localization of cGAS and TOP1cc into CCF
- TOP1cc induction (TOP1cc [1]): induced TOP1cc in a dose-dependent manner
- TOP1cc levels in CCF (TOP1cc [2]): restored the TOP1cc levels
- TOP1cc levels in CCF (TOP1cc [2]; listed as Camptothecin): Rescue of the decrease in TOP1cc levels
